How the values were obtained:
Format in all cases: cell-based
Raw 264.7 cells = experiment: Raw cells activation, FACS of activation markers CD80, CD40, CD86, MHC-II; details: 24 h and 48 h, compared to negative control and other peptides
Method: Additional testing was carried out to verify the activation levels if the peptides using expression level of activation markers. Raw cells were activated using the peptides of SEQ ID Nos. 1, 4 and 5 and a control peptide. The analysis of the activation level was done by examining the expression level of few activation markers. In order to verify the obtained results, two repeats were done. Standard Raw cells activation and FACS staining protocol were carried out.
The following describes the experimental design in detail. 5-7.5X10^6 Raw 264.7 cells were seeded in 6-well plates 24 h prior to the stimulation in 3ml/well of DMEM containing 4 mmol/L glutamine and 10% heat-inactivated FCS. At the next day, cells were treated with bacterial LPS (10 or 100 ng/ml, E coli, sigma) as positive control, and with peptides SEQ ID Nos. 1, 4, 5 and the control peptide (50, 100 and 200 μM for each peptide). The volume of the incubation was 1.5 ml for each well. After 24 or 48 h (two experiments), the concentrations of nitrite were measured in the culture supernatant by the Griess assay while absorbance was read at 550 nm. Simultaneously, the cells were stained for surface receptors: CD40, CD80, CD86 and MHC-II with the appropriate antibodies (biolegend) and analysed by flow cytometry using FSC express 3 software. […]

[1] = system: TLR4 with MD2 or CD14 co-receptor; experiment: Reporter gene (SEAP) PAMP assay in NIH3T3 cells expressing TLR4 with MD2 or CD14 co-receptor; details: summary of FIGS. 6A-6V; for Co-Receptor/s: co-receptor (MD2/CD14) via which the effect occurs; for Activity: type of effect (activation/inhibition) on TLR4
Text: FIGS. 6A-6V show the dose response inhibitor/activator effects of the designed peptides using a reporter gene assay. The reporter gene assay is composed of NIH3T3 cells transfected with either MD2 or CD14 along with TLR4 and the NF-κB-inducible reporter gene Secreted Alkaline Phosphatase (SEAP) to monitor TLR4 activation (Burger-[…] al. 2010, A new cell-based innate immune receptor assay for the examination of receptor activity, ligand specificity, signaling pathways and the detection of pyrogens. […] The receptors are coupled to for the detection of inhibitory activity, cells were treated with the peptide prior to exposure to LPS and the response to LPS is measured at variable peptide doses (as labeled). The detection of cell activation was performed using the peptide alone, at variable doses, as indicated in the respective graphs. The following presents in more details the experimental procedures. Experimental setup: The cell-based Assay is performed with different NIH3T3 reporter cell lines (NIH 3T3 PRR SEAP-TLR4/CD14 or -TLR4/MD2) and the control cell line NIH 3T3 SEAP. The NIH3T3 SEAP cell line is used in order to determine the background of the alkaline phosphatase expression. It is a cell line stably transfected with only the reporter gene plasmid. For each assay a vial of the master cell bank is revitalized and seeded in a standard cell culture flask (75 cm^2 T-Flask) at day one. Cells are cultured in 20 ml culture media (DMEM supplemented with 10% FCS (heat inactivated), 50 units/ ml penicillin, 0.05 mg/ ml streptomycin and 2 mmol/ L L-glutamine). The cells are cultured at 37° C. in a 5% CO2 humidified atmosphere. At Day 1: For the PAMP Assay cells are seeded in a 96-well plate at a density of 0.3.10^5 cells/well in a final volume of 100 μl culture media (DMEM, 10% FCS (heat inactivated)). To ensure equal culture conditions the 96-well cell culture plates are placed side by side and cultivated in a humidified CO2 incubator (37° C. and 5% CO2). […] After a cultivation period of 24 h the media is removed and replaced with the respective volume of fresh media (DMEM, 0.5% FCS (heat inactivated)).The lyophilized peptides are stored in a freezer at -20° C. upon arrival. For the experiments they are dissolved in DMSO (to the highest possible concentration). Before opening the peptides are allowed to equilibrate to room temperature (in order to reduce the uptake of moisture). For each experiment the stock solution is diluted in DMEM to the appropriate working concentration. […] Sonication was also used to help dissolve the peptides. Immediately after replacing the media, the diluted peptides are applied in a serial dilution to the cells and directly after that the agonist is added to the cells. After adding peptide and […] the final volume in each well of a 96 well plate amounts 100 μl/well. The culture medium containing 0.5% FCS is used as a negative reference item. The induction is performed for 18 h at 37° C. and 5% CO2. At Day 3: To determine the final SEAP value, 50 μl of the supernatant is carefully transferred in a new 96-well plate (Greiner-F-plate) and 50 μl of the substrate (pNPP; p-nitrophenyl phosphate) is added. SEAP catalyzes the hydrolysis of pNPP to the final product para-nitrophenol (yellow) which can be detected by a photometric analysis using an UV-VIS reader at 405 nm. […] The results of FIGS. 6A-6V with respect to peptide activity are summarized in Table 1 above with respect to the type of effect of the respective peptide (activation/inhibition) and with respect to the corresponding co-receptor (MD2/CD14). Data concerning SEQ ID No. 22 with respect to co-receptor CD14 is in preparation.

TLR4/MD2 = biological target: T1, TLR4/MD2 (Homo sapiens, UniProt O00206+Q9Y6Y9); experiment: Reporter gene assay, NIH3T3 cells TLR4 with MD2 co-receptor
T1 construct: expressed in transfected cells; host or cells: NIH3T3 (NIH 3T3 PRR SEAP-TLR4/MD2)
Text: FIGS. 6A-6V present peptide activity using NIH3T3 cells that express TLR4, with either the MD2 co-receptor (top) or CD14 co-receptor (bottom), for peptides of SEQ ID Nos. 1-22, respectively, according to some embodiments of the invention. FIGS. 6A-6V show the dose response inhibitor/activator effects of the designed peptides using a reporter gene assay. The reporter gene assay is composed of NIH3T3 cells transfected with either MD2 or CD14 along with TLR4 and the NF-κB-inducible reporter gene Secreted Alkaline Phosphatase (SEAP) to monitor TLR4 activation (Burger-Kentischer et al. 2010, A new cell-based innate immune receptor assay for the examination of receptor activity, ligand specificity, signaling pathways and the detection of pyrogens. J Immunol Methods. 358(1-2): 93-103). […] The receptors are coupled to for the detection of inhibitory activity, cells were treated with the peptide prior to exposure to LPS and the response to LPS is measured at variable peptide doses (as labeled). […]
At Day 3: To determine the final SEAP value, 50 μl of the supernatant is carefully transferred in a new 96-well plate (Greiner-F-plate) and 50 μl of the substrate (pNPP; p-nitrophenyl phosphate) is added. SEAP catalyzes the hydrolysis of pNPP to the final product para-nitrophenol (yellow) which can be detected by a photometric analysis using an UV-VIS reader at 405 nm. […]

T1 sequence (O00206 24-839): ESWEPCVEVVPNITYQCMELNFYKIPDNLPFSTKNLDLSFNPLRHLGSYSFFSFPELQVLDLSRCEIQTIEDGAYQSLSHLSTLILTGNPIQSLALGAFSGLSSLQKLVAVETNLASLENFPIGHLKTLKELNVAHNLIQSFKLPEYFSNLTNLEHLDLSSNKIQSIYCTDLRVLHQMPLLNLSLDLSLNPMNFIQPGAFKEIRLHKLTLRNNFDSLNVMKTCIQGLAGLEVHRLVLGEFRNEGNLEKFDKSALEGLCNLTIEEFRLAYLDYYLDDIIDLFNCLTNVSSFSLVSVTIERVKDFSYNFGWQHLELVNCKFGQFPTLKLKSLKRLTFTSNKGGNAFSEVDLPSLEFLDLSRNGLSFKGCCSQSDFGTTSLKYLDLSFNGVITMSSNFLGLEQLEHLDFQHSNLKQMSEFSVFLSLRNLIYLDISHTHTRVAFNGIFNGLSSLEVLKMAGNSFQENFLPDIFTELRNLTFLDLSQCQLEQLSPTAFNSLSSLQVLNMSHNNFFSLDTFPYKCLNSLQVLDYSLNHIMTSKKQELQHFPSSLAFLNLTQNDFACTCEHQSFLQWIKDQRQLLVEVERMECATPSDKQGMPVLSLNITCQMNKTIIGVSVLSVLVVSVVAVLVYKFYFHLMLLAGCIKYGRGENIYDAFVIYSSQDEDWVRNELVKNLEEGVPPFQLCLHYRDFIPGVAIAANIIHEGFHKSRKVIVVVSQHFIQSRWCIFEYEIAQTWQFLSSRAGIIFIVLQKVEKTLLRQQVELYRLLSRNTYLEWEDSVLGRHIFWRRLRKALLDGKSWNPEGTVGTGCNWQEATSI
T1 sequence (Q9Y6Y9 19-160): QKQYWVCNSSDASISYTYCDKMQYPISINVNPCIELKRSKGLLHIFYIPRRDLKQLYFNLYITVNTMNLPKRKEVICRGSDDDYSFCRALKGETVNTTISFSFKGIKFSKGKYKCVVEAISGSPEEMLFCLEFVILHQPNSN

activation with respect to MD2 (TLR4/MD2) | Substance | stimulation of raw cells (expression of activation markers) (Raw 264.7 cells) | Co-Receptor/s [1] | Activity [1]
 | LAWYFGRKIKE (Inhibitor) [SEQ ID No. 11] | most promising stimulator | MD2 | Inhibitor
weak activator | c[WMLGMESI] (cyclic; Activator, cyclic) [SEQ ID No. 7] |  | CD14 | Activator

From patent publication US20200247849A1, “PEPTIDE AGONISTS AND ANTAGONISTS OF TLR4 ACTIVATION” (PEPTICOM LTD, priority 2016, published 2020)
